Laboratory results taken from patent publication US20140099262A1, “ISOTOPICALLY LABELED CDP-CHOLINE AND USES THEREOF” (BRAIN WATCH LTD., priority 2011, published 2014).
Marks after values point to notes of the source that are not given here.

Key:
[1] = T1 of carbon-13 nuclei in the choline moiety of CDP-choline; type: physicochemical; conditions: 11.8 T, non-deuterated positions
From the text: Furthermore, it was unexpected to find that the relaxation time of the phosphorus nuclei is longer in plasma as compared to water.

[2] = 31P T1 (spin-lattice relaxation) measurement of CDP-Choline phosphates by inversion recovery, in water and in plasma; type: physicochemical; conditions: 31P-NMR, 11.8T, confidence interval in brackets
Protocol: […] CDP-Choline were dissolved in 700 μL distilled water containing 10% deuterated water (85.7 mM solution) and stored in a 5 mm NMR tube in the freezer until assay.
Two units of expired plasma (about 250 cc per unit) from blood type AB and O were obtained frozen from the blood bank section at Hadassah Medical Center. Plasma was defrosted in the refrigerator overnight. 565 μl of plasma solution was mixed with 75 IA distilled water and transferred to a 5 mm NMR tube. The solution was kept on ice until NMR analysis the same day. 60 μl CDP-Choline was added to the solution and ^31P-NMR was recorded 37 s from the time CDP-Choline mixed with the plasma solutions in the NMR tube. The Ionic strength of the solution was 315.04 mM and the concentration of CDP-Choline 15.4 mM.
Spectra were obtained on an 11.8T high-resolution spectrometer (Varian, Palo Alto, Calif., USA) with a 5 mm direct multi-nuclei probe.
T1 measurements were performed for CDP-Choline in water and in plasma with the standard inversion recovery pulse sequence. The data were fitted to the standard inversion recovery equation using the MATLAB software (The MathWorks Inc., Natick, Mass., USA).

[3] = intravenous administration; cited from earlier work

With `C[N+](C)(C)CCOP(=O)(O)OP(=O)(O)OC[C@H]1O[C@@H](n2ccc(N)nc2=O)[C@H](O)[C@@H]1O` [CDP-Choline, 5′-O-[hydroxy({hydroxy[2-(trimethylammonio)ethoxy]phosphoryl}oxy)phosphoryl]cytidine] the “T1 of the carbon-13 nuclei in the choline moiety” value [1] was 2 to 3 s, the “T1 of phosphate P1” value ([2]; H2O, 85.7 mM) was 1.2 (0.9-1.5) s and the “T1 of phosphate P2” value ([2]; H2O, 85.7 mM) was 1.4 (1.3-1.6) s. The “T1 of phosphate P1” value ([2]; plasma, 15.4 mM) was 2.0 (1.9-2.0)* s, the “T1 of phosphate P2” value ([2]; plasma, 15.4 mM) was 2.6 (2.4-2.8) s and the “LD0 of CDP-Choline compared to choline” value [3] was “about 40 fold”.
